Tested on: DSS-induced colitis
Experiment: Dextran-induced colitis
Assay type: in vivo, C57BL/6 mice
Details: for Complete clinical score: 0 (healthy) to 4; for Weight: in g; for Bleeding / Stool consistency as score: score 0-4; for Colon length: post mortem day 10
Description: Female, 8 week-old C57BL/6 mice (The Jackson Laboratories, Bar Habor, Me.) weighing 20-22 g were used in this study. The animals were housed in rooms at a controlled temperature and a 12 h day/night rhythm. They were fed standard mice chow pellets ad libitum, had free access to tap water supplied in bottles, and were acclimatized to the conditions at least seven days before they were used in experiments. Mice were killed by cervical dislocation under isoflurane anesthesia (Fort Dodge, Iowa City, Iowa).
; molecular weight 40 kDa; ICN, Aurora, Ohio) dissolved in sterile, distilled water ad libitum from day one to five followed by a five day observation period. […]. Body weights, occult blood or the presence of gross blood per rectum, and stool consistency were determined daily. Two investigators blinded to the protocol assessed the clinical score (table 1). Weight loss <1% compared to day 1 was counted as 0 points, weight loss of 1 to <5% as 1 point, 5 to <9.9% as 2 points, 10 to 20% as 3 points and more than 20% as 4 points. […] Bleeding was scored 0 points for no blood in hemoccult, 2 points for positive hemoccult, and 4 points for gross bleeding. These scores (body weight, stool consistency, rectal bleeding) were added and divided by 3 resulting in a total clinical score ranging from 0 (healthy) to 4 (maximal activity of colitis).
Post mortem (on day 10), the entire colon was removed from the caecum to the anus and the colon length was measured as an indirect marker of inflammation.

[1] = DSS + SAHA 10 mg/kg p.o. daily, day 1
[2] = DSS + SAHA 10 mg/kg p.o. daily, day 2
[3] = DSS + SAHA 10 mg/kg p.o. daily, day 3
[4] = DSS + SAHA 10 mg/kg p.o. daily, day 4
[5] = DSS + SAHA 10 mg/kg p.o. daily, day 5
[6] = DSS + SAHA 10 mg/kg p.o. daily, day 6
[7] = DSS + SAHA 10 mg/kg p.o. daily, day 7
[8] = DSS + SAHA 10 mg/kg p.o. daily, day 8
[9] = DSS + SAHA 10 mg/kg p.o. daily, day 9
[10] = DSS + SAHA 10 mg/kg p.o. daily, day 10
[11] = SAHA 10 mg/kg p.o. daily without DSS, day 1
[12] = SAHA 10 mg/kg p.o. daily without DSS, day 2
[13] = SAHA 10 mg/kg p.o. daily without DSS, day 3
[14] = SAHA 10 mg/kg p.o. daily without DSS, day 4
[15] = SAHA 10 mg/kg p.o. daily without DSS, day 5
[16] = SAHA 10 mg/kg p.o. daily without DSS, day 6
[17] = SAHA 10 mg/kg p.o. daily without DSS, day 7
[18] = SAHA 10 mg/kg p.o. daily without DSS, day 8
[19] = SAHA 10 mg/kg p.o. daily without DSS, day 9
[20] = SAHA 10 mg/kg p.o. daily without DSS, day 10

Complete clinical score [11]: 0.0 ± 0.0
Weight [11]: 18.9 ± 0.3
Bleeding [11]: 0.0 ± 0.0
Stool consistency as score [11]: 0.0 ± 0.0
Complete clinical score [12]: 0.0 ± 0.0
Weight [12]: 18.8 ± 0.4
Bleeding [12]: 0.0 ± 0.0
Stool consistency as score [12]: 0.0 ± 0.0
Complete clinical score [13]: 0.0 ± 0.0
Weight [13]: 18.9 ± 0.2
Bleeding [13]: 0.0 ± 0.0
Stool consistency as score [13]: 0.0 ± 0.0
Complete clinical score [14]: 0.0 ± 0.0
Weight [14]: 18.9 ± 0.3
Bleeding [14]: 0.0 ± 0.0
Stool consistency as score [14]: 0.0 ± 0.0
Complete clinical score [15]: 0.0 ± 0.0
Weight [15]: 19.0 ± 0.1
Bleeding [15]: 0.0 ± 0.0
Stool consistency as score [15]: 0.0 ± 0.0
Complete clinical score [16]: 0.0 ± 0.0
Weight [16]: 19.0 ± 0.3
Bleeding [16]: 0.0 ± 0.0
Stool consistency as score [16]: 0.0 ± 0.0
Complete clinical score [17]: 0.0 ± 0.0
Weight [17]: 18.9 ± 0.1
Bleeding [17]: 0.0 ± 0.0
Stool consistency as score [17]: 0.0 ± 0.0
Complete clinical score [18]: 0.0 ± 0.0
Weight [18]: 19.0 ± 0.3
Bleeding [18]: 0.0 ± 0.0
Stool consistency as score [18]: 0.0 ± 0.0
Complete clinical score [19]: 0.0 ± 0.1
Weight [19]: 19.1 ± 0.1
Bleeding [19]: 0.0 ± 0.0
Stool consistency as score [19]: 0.0 ± 0.0
Complete clinical score [20]: 0.0 ± 0.0
Weight [20]: 19.1 ± 0.2
Bleeding [20]: 0.0 ± 0.0
Stool consistency as score [20]: 0.0 ± 0.0
Colon length (SAHA 10 mg/kg p.o. daily without DSS, water 10.5 ± 0.3): 10.1 ± 0.2 cm
SMILES: O=C(CCCCCCC(=O)Nc1ccccc1)NO [SAHA, suberoylanilide hydroxamic acid]
Complete clinical score [1]: 0.0 ± 0.0
Weight [1]: 19.1 ± 0.2
Bleeding [1]: 0.0 ± 0.0
Stool consistency as score [1]: 0.0 ± 0.0
Complete clinical score [2]: 0.0 ± 0.0
Weight [2]: 18.8 ± 0.2
Bleeding [2]: 0.0 ± 0.0
Stool consistency as score [2]: 0.0 ± 0.0
Complete clinical score [3]: 0.1 ± 0.1
Weight [3]: 19.1 ± 0.3
Bleeding [3]: 0.0 ± 0.0
Stool consistency as score [3]: 0.0 ± 0.0
Complete clinical score [4]: 0.2 ± 0.1
Weight [4]: 18.4 ± 0.4
Bleeding [4]: 0.0 ± 0.0
Stool consistency as score [4]: 0.0 ± 0.0
Complete clinical score [5]: 0.7 + 0.3
Weight [5]: 18.4 ± 0.4
Bleeding [5]: 1.2 ± 0.4
Stool consistency as score [5]: 0.8 ± 0.4
Complete clinical score [6]: 1.3 ± 0.3
Weight [6]: 18.7 ± 0.3
Bleeding [6]: 2.4 ± 0.4
Stool consistency as score [6]: 0.8 ± 0.4
Complete clinical score [7]: 1.5 ± 0.1
Weight [7]: 18.0 ± 0.4
Bleeding [7]: 2.0 ± 0.0
Stool consistency as score [7]: 2.0 ± 0.0
Complete clinical score [8]: 1.9 ± 0.1
Weight [8]: 16.9 ± 0.3
Bleeding [8]: 1.6 ± 0.4
Stool consistency as score [8]: 2.0 ± 0.0
Complete clinical score [9]: 1.5 ± 0.4
Weight [9]: 16.6 ± 0.4
Bleeding [9]: 1.2 ± 0.4
Stool consistency as score [9]: 1.2 ± 0.4
Complete clinical score [10]: 1.3 ± 0.4
Weight [10]: 16.6 ± 0.4
Bleeding [10]: 0.8 ± 0.4
Stool consistency as score [10]: 1.2 ± 0.4
Colon length (DSS + SAHA 10 mg/kg p.o. daily, DSS + water 7.6 ± 0.2): 9.2 ± 0.2 cm
effect on dextran-induced colitis (overall conclusion) (SAHA 10 mg/kg p.o. daily, days 1 to 10): effectively counteracts dextran-induced colitis
